From article PMC8839660, “Structural Refinement of 2,4-Thiazolidinedione Derivatives as New Anticancer Agents Able to Modulate the BAG3 Protein” (Molecules, 2022)

What was measured:
[1] = system: human melanoma cell line (A375); test: MTT cell viability assay, A375; type: cell-based; details: 5–50 µM; for A375 Cell Line IC50 ± SD: 48 h; for IC50: Homo sapiens, A-375, 48 h, read-out: A375 Cell Line IC50 ± SD
Procedure: (§1) Firstly, the antiproliferative activity of lead compound 1, 2 and 5–9 against selected human cell lines was assessed. No effect on human PHA (Phytohaemagglutinin)-stimulated proliferating non-tumor human cell line (PMBC) has been detected for compound 1 tested at different concentrations (10–50 μM) after 72 h of exposure. In more detail, all the synthesized compounds have been tested on human melanoma cancer A375 and HeLa cancer cell lines, which are known to overexpress BAG3 protein, by an MTT cell viability assay, using different concentrations (5–50 μM). The IC50 values have been calculated after 48 h of treatment with test compounds (Table 2).
(§2) Cell lines of human cervical carcinoma (HeLa) and human malignant melanoma (A375) were cultured in Dulbecco’s modified Eagle’s medium containing 10% fetal bovine serum, supplemented with 100 U/mL each of penicillin and streptomycin, and 2 mM/L glutamine and were grown at 37 °C under 5% CO2 air humidified atmosphere.
(§3) Cell viability was evaluated using a colorimetric assay based on MTT ((3-(4,5-dimethylthiazol-2-yl)-2,5-diphenyltetrazolium bromide)) assay. Cells were grown in 96-well tissue culture plates (3,5 × 10^3 cells/well) and after 24 h, were treated with different concentrations of 1, 2 and 5–9 (50, 25, 10, and 5 µM) and incubation was performed for 48 h at 37 °C in an atmosphere containing 5% CO2. At the end of treatment, the plates were centrifuged at 1200 rpm for 5 min, the medium was removed and 100 μL of MTT (1 mg/mL) were added to each well, and cells were incubated at 37 °C for the time necessary to allow the formation of purple formazan precipitate. The solution was then removed from each well, and the formazan crystals within the cells were dissolved with 100 μL of DMSO [31]. The optical density (OD) of each well was measured with a microplate spectrophotometer (Multiskan Spectrum Thermo Electron Corporation reader) (Thermo Fisher Scientific, Rome, Italy) equipped with a 620-nm filter. Cell mortality was calculated as: % mortality = 100 − [100 × (OD treated/OD control)] [32].

[2] = system: human cervical adenocarcinoma cell line (HeLa); test: MTT cell viability assay, HeLa; type: cell-based; details: 48 h, 5–50 µM; for IC50: Homo sapiens, HeLa, read-out: HeLa Cell Line IC50 ± SD
Procedure: as §1, §2, §3

[3] = target: T1, human recombinant BAG4 protein (Homo sapiens, UniProt O95429); test: SPR assay on BAG4 (selectivity); details: 25 °C, n.b. = no binding
T1 sequence (O95429 1-457): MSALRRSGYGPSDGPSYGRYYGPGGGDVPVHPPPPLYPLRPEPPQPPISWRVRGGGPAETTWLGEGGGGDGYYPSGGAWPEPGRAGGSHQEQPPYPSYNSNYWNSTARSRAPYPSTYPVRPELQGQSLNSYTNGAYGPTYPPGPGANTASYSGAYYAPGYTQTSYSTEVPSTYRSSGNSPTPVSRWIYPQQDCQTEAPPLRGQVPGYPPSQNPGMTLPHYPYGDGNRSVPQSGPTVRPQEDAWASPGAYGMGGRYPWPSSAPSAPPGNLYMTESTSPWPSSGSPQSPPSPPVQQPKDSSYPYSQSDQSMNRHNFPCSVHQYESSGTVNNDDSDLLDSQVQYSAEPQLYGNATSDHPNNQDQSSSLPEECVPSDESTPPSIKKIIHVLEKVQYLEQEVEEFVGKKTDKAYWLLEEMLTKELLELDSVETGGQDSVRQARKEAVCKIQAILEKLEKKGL
Procedure: (§9) A surface plasmon resonance (SPR) assay [18], using a recombinant BAG3 protein, was performed and, to explore the potential selectivity of our potential binders, the affinity for BAG4—the most closely BAG3 related protein—was also evaluated. Moreover, the binding affinity towards the BAG3BD domain was also assessed.
(§10) The SPR analysis were performed on Biacore 3000^TM equipped with a research-grade CM5 sensor chip (GE Healthcare^TM, Milan, Italy). Human recombinant BAG3 (rBAG3) protein was purchased from MyBioSource© (San Diego, CA, USA), BAG3 domain (rBAG3BD) was purchased from ARETA International S.r.l. […] The proteins were coupled to the surface of a CM5 sensor chip using standard amine-coupling protocols, according to the manufacturer’s instructions. Three separates recombinant rBAG proteins surfaces and one unmodified reference surface were prepared for simultaneous analyses. rBAG proteins (BAG3 and BAG4) and rBAG3BD (100 µg mL^−1 in 10 mM CH3COONa, pH 4.5) were immobilized on the sensor chip surface at a flow rate of 5 µL min^−1 to obtain densities of 5–9 kRU. […] For each molecule, a six-point concentration series was conducted in triplicate (0-0.25-1-10-20-100 µM). SPR (Surface Plasmon Resonance) experiments were performed at 25 °C, using a flow rate of 10 µL min^−1, with 60-s monitoring of association and 300-s monitoring of dissociation. Sensorgram elaborations were performed using the BIAevaluation software (GE Healthcare^TM, Milan, Italy). provided by GE Healthcare^TM. Simple interactions were suitably fitted to a single-site bimolecular interaction model (A + B = AB), yielding a single KD.

BAG3 domain (rBAG3BD) = target: T2, BAG3 domain (rBAG3BD) (Homo sapiens, UniProt O95817); test: SPR assay on isolated BAG3 BAG domain; details: for rBAG3BD KD ± SD: SPR, isolated BAG domain, 25 °C, n.b. = no binding
T2 sequence (O95817 421-498 limits assumed): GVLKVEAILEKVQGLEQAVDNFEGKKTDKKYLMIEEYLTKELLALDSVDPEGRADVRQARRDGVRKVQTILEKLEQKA
Procedure: as §9, §10

[4] = target: Human recombinant BAG3 (rBAG3) protein full length (Homo sapiens, UniProt O95817); test: SPR assay on recombinant full-length BAG3; details: for rBAG3 KD ± SD: SPR, full-length protein, 25 °C, n.b. = no binding
Sequence of Human recombinant BAG3 (rBAG3) protein full length (O95817 whole entry): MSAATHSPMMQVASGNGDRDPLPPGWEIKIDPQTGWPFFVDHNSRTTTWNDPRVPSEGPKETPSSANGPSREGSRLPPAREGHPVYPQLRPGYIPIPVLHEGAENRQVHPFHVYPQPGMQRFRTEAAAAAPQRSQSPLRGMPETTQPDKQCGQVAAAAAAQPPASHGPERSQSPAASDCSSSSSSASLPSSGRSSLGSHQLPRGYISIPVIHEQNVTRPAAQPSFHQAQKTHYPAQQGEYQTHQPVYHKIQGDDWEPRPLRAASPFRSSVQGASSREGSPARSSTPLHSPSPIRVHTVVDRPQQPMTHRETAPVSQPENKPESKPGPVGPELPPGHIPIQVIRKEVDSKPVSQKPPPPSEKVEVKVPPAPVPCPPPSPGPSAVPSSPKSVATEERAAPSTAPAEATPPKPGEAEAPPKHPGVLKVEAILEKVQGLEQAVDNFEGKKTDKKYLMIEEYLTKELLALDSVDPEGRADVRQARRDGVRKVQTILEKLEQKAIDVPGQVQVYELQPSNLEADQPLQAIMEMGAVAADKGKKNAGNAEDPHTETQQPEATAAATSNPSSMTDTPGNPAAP
Procedure: as §9, §10

A375 cells = test: Apoptosis and cell cycle analysis by PI staining and flow cytometry, A375; type: cell-based, human; details: 5-10-25 μM, 48 h
Procedure: (§4) The cells were incubated for 48 h with 1 and 6 at concentrations 5-10-25μM.
(§5) The effect of compound 1 and 6 on cell death was analyzed by propidium iodide (PI) (Merck, Darmstadt, Germany) incorporation in permeabilized cells and flow cytometry. Briefly, cells were plated at a density of 2 × 10^4 cells/well in a 24-well plate. After 24 h, 1 and 6 (25-10-5 μM) were added for 48 h. Cells were washed twice with PBS and incubated in 500μL of a solution containing 0.1% Triton X-100, 0.1% sodium citrate, and […] propidium iodide (PI), at 4 °C for 30 min in the dark. The PI-stained cells were subsequently analyzed by flow cytometry by FACSCalibur flow cytometer (Becton Dickinson, Milan, Italy) using CellQuest software (4.0, Becton Dickinson, North Ryde, NSW, Australia). Results are expressed as the percentage of cells in the hypodiploid region. Cellular debris were excluded from the analysis by raising the forward scatter threshold and the DNA content of the nuclei was registered on a logarithmic scale. Cell cycle profiles were evaluated by DNA staining with a PI solution using a flow cytometer. Results from 5000 events per sample were collected, and the relative percentage of the cells in G0/G1, S, G2/M, and sub-G0/G1 phases of the cell cycle was determined using the ModFit LT version 3.3 analysis software (BD Biosciences, North Ryde, NSW, Australia).
Figure 3 Cell cycle analysis: (a) DNA content and (b) hypodiploid nuclei, with propidium iodide staining, were evaluated by flow cytometric assay. A375 cells were treated respectively with 1 or 6 (both 5-10-25 μM) for 48 h. Results are expressed as mean ± S.E.M. of three independent experiments, each performed in duplicate. Data were analyzed by Student’s t-test. * p < 0.05 and ** p < 0.005 vs. non-treated.

HeLa cells = test: Apoptosis and cell cycle analysis by PI staining and flow cytometry, HeLa; type: cell-based, human; details: 5-10-25 μM, 48 h
Procedure: as §4, §5
Figure 4 Cell cycle analysis: (a) DNA content and (b) hypodiploid nuclei, with propidium iodide staining, were evaluated by flow cytometric assay. HeLa cells were treated with 6 (5-10-25 μM) for 48 h. Results are expressed as mean ± S.E.M. of three independent experiments each performed in duplicate. Data were analyzed by Student’s t-test. * p < 0.05 and ** p < 0.005 vs. non-treated.

caspase 3 = test: Caspase 3 level by flow cytometry in HeLa cells; type: cell-based, human; details: 5-10-25 μM, 48 h
Procedure: (§6) Furthermore, the expression of caspases, the key mediators of programmed cells death, was examined in HeLa cells after the treatment with compound 6.
(§7) Cells were plated into 12-well plated (2 × 10^4 cells/well) and after 24 h were treated with 6 (50-25-10-5 µM) for 48 h to assess caspase 3 and caspase 9 levels. Cells were collected, washed with PBS, then incubated in fixing buffer (containing 4% formaldehyde, 0.1% NaN3, and 2% FBS in PBS) for 20 min and then permeabilized with fix perm solution (fixing buffer containing 0.1% Triton X) for 30 min. Afterward, anti-caspase 3 or anti-caspase 9 antibodies were added for a further 30 min. Cells were then incubated with anti-rabbit Texas Red antibody as a secondary antibody for 1 h at 4 °C. Cell fluorescence was evaluated using a fluorescence-activated cell sorter (FACSscan; Becton Dickinson, Milan, Italy) and analyzed with the Cell Quest software (4.0, Becton Dickinson, North Ryde, NSW, Australia). Data were shown as a percentage of positive cells.
(§8) Figure 5 (a) Caspase 3 and (b) caspase 9 expressions were detected by flow cytometric analysis. HeLa cells were treated with 6 (5-10-25 μM) for 48 h. Results are expressed as mean ± S.E.M. from at least three independent experiments each performed in duplicate. Data were analyzed by Student’s t-test. *** p < 0.0001 vs. non-treated.

caspase 9 = test: Caspase 9 level by flow cytometry in HeLa cells; type: cell-based, human; details: 5-10-25 μM, 48 h
Procedure: as §6, §7, §8

BAG3 = BAG3 expression by Western blotting in HeLa cells; type: cell-based, human; details: 5-10-25 μM, 48 h
Procedure: Figure 6 HeLa cells were treated with 6 (5-10-25 μM) for 48 h. BAG3 expression was detected by Western blotting. Tubulin protein expression was used as a loading control. Results are expressed as mean ± S.E.M. from at least three independent experiments each performed in duplicate. Data were analyzed by Student’s t test vs. non-treated.

| Compound | A375 Cell Line IC50 ± SD [1] | IC50 [1] [µM] | HeLa Cell Line IC50 ± SD [2] | IC50 [2] [µM] | rBAG4 KD ± SD [3] | rBAG3BD KD ± SD (BAG3 domain (rBAG3BD)) | Kd [4] [nM] | rBAG3 KD ± SD [4] | Kd (BAG3 domain (rBAG3BD)) [nM] | apoptotic response (hypodiploid nuclei), A375 (A375 cells) | cell cycle distribution (G2 phase), A375 (A375 cells) | apoptotic response (hypodiploid nuclei), HeLa (HeLa cells) | cell cycle distribution (G2 phase), HeLa (HeLa cells) | caspase 3 levels (caspase 3) | caspase 9 levels (caspase 9) | BAG3 expression (BAG3) |
| --- | --- | --- | --- | --- | --- | --- | --- | --- | --- | --- | --- | --- | --- | --- | --- | --- |
| CCOC(=O)CN1C(=O)S/C(=C\c2ccc(-c3ccc(C#N)cc3)cn2)C1=O [Compound 8, (Z)-ethyl 2-(5-((5-(4-cyanophenyl)pyridin-2-yl)methylene)-2,4-dioxothiazolidin-3-yl) acetate] | micromolar range | 23.2 ± 1 | micromolar range | 25.9 ± 0.8 | n.b. | n.b. | 144 ± 1.5 |  |  |  |  |  |  |  |  |  |
| CCOC(=O)CN1C(=O)S/C(=C\c2cc(O)cc(O)c2)C1=O [Compound 3, (Z)-ethyl 2-(5-(3,5-dihydroxybenzylidene)-2,4-dioxothiazolidin-3-yl) acetate] |  |  |  |  |  |  |  | n.b. |  |  |  |  |  |  |  |  |
| COC(=O)CN1C(=O)S/C(=C\c2ccc(-c3ccc(C#N)cc3)cn2)C1=O [Compound 9, (Z)-methyl 2-(5-((5-(4-cyanophenyl)pyridin-2-yl)methylene)-2,4-dioxothiazolidin-3-yl) acetate] | micromolar range | 28.4 ± 0.9 | micromolar range | 31.3 ± 1 | n.b. |  | 24.7 ± 1.8 |  | 22.4 ± 0.7 |  |  |  |  |  |  |  |
| CCOC(=O)CN1C(=O)S/C(=C\c2ccc(N(CCO)CCO)cc2)C1=O [Compound 6, (Z)-ethyl 2-(5-(4-(bis(2-hydroxyethyl)amino)benzylidene)-2,4-dioxothiazolidin-3-yl) acetate] | micromolar range | 19.4 ± 1.2 | micromolar range | 18.7 ± 0.9 | n.b. |  | 6.3 ± 0.3 |  | 27.6 ± 1.9 | significant increase of the apoptotic response in a dose-dependent manner | dose-dependent accumulation in the G2 phase | significant increase of the apoptotic response in a dose-dependent manner | dose-dependent accumulation in the G2 phase | significant and dose-dependent activation | significant and dose-dependent activation | expression decrease of BAG3 |
| COC(=O)CN1C(=O)S/C(=C\c2ccc(O)c(O)c2)C1=O [Compound 2, (Z)-methyl 2-(5-(3,4-dihydroxybenzylidene)-2,4-dioxothiazolidin-3-yl) acetate] |  | > 50 |  | 27.3 ± 1.2 | n.b. | n.b. | 115 ± 1.4 |  |  |  |  |  |  |  |  |  |
| COC(=O)CN1C(=O)S/C(=C\c2cc(O)cc(O)c2)C1=O [Compound 4, (Z)-methyl 2-(5-(3,5-dihydroxybenzylidene)-2,4-dioxothiazolidin-3-yl) acetate] |  |  |  |  |  |  |  | n.b. |  |  |  |  |  |  |  |  |
| COC(=O)CN1C(=O)S/C(=C\c2ccc(N(CCO)CCO)cc2)C1=O [Compound 7, (Z)-methyl 2-(5-(4-(bis(2-hydroxyethyl)amino)benzylidene)-2,4-dioxothiazolidin-3-yl) acetate] |  | > 50 |  | 49.4 ± 1.4 | n.b. |  | 53.1 ± 9.1 |  | 45.7 ± 1.7 |  |  |  |  |  |  |  |
| O=C(CN1C(=O)S/C(=C\c2cc(O)cc(O)c2)C1=O)N1CCOCC1 [Compound 5, (Z)-5-(3,5-dihydroxybenzylidene)-3-(2-morpholino-2-oxoethyl) thiazolidine-2,4-dione] | micromolar range | 25.5 ± 1.1 | micromolar range | 30 ± 1.3 | n.b. |  |  |  |  |  |  |  |  |  |  |  |
